Columns and labels:
[1] = test system: young cells (human fibroblasts); assay: Cell proliferation by counting live cells (trypan blue), young cells; assay type: cell-based; conditions: serum-starved 2 days, counted day 1, 2, 4, 30 μM LPA, 300 μM ACI, 10 mM AMPKI, 10 mM AICAR
Procedure: (§1) Human fibroblasts were prepared by primary culture of foreskin of a newborn baby (Boyce and Ham, 1983). The primary culture was performed in DMEM supplemented with 10% FBS and 1% antibiotics. The protein contents of young cells from the early stage of sub-culture, with a population doubling (PD) of less than 25, were compared to those of at least PD 65-70 senescent cells. […] In senescent cells, the activity of beta-galactosidase was increased and cell proliferation was reduced (Yeo et al., 2000).
(§2) Prior to LPA and ACI treatment, cells were grown for 1-2 days to 60-70% sub-confluence in DMEM-containing culture medium, and then serum-starved to quiescence (that is Go/G1 arrest) by incubation in a serum-free medium containing 0.1% bovine serum albumin (BSA) for 2 days. Young and senescent cells were treated with LPA, ACI, LPA+ACI, AMPKI and AICAR, respectively. Live cells were measured after staining the cells with trypan blue on day 1, day 2 and day 4 to confirm cell proliferation.
(§3) Cell proliferation and cAMP level were increased by LPA in senescent cells (Yeo et al., 2002). The AC inhibitor (ACI) was added to reduce cAMP which had been increased by LPA. And then, cell proliferation was investigated. Cells were cultured in serum-free medium for 2 days to arrest them in G0/G1 phase. Then, the cells were treated with LPA, ACI or LPA+ACI. Total cell number was measured on day 1, day 2 and day 4, or the cells entered into S phase were counted to evaluate cell proliferation. When young cells were treated with 300 μM of ACI, cell proliferation was reduced, compared with control (FIG. 1A). In the meantime, when senescent cells were treated with 300 μM of ACI, cell proliferation was increased, compared with control (FIG. 1B).

p-Ser431-LKB1 = assay: Immuno-blotting of p-Ser431-LKB1; assay type: cell-based, human; conditions: 30 μM LPA, 300 μM ACI, 1, 2, 4 days
Procedure: (§4) FIG. 8 is a set of photographs illustrating the effects of LPA and ACI on LKB1 phosphorylation in senescent cells. Precisely, sub-cultured young cells (PD 18) and senescent cells (PD64) were treated with 30 μM of LPA or 300 μM of LPA and ACI singly or together. After culturing the cells for 1, 2, and 4 days, proteins were extracted from the cultured cells and the levels of LKB1, p-Ser431-LKB1 and β-actin were quantified by immuno-blotting using 45 μg of the protein.
(§5) To analyse protein expression, human fibroblasts were lysed in cold lysis buffer (25 mM Hepes, pH 8.0, 150 mM NaCl, 1 mM EDTA, 1 mM Na3VO4, 1 mM NaF, 1% Triton X-100 and protease inhibitors), followed by centrifugation at 4° C. at 9,000 rpm for 10 minutes to obtain supernatant. Protein in the extract was quantified […]. SDS-PAGE electrophoresis was performed with equal amount of the protein (45 μg) to separate. The separated protein was transferred onto NC membrane from the electrophoresis gel. Non-specific protein binding was blocked by blocking the blot (transferred NC membrane) using TTBS […] containing 5% skim milk for one hour. Then, antigen-antibody reaction was induced with diluted primary antibody at 4° C. for overnight. The blot was washed with TTBS, followed by reaction with horseradish peroxidase conjugated anti-IgGs diluted in TTBS containing 5% skim milk (1:5000) at room temperature for one hour. The blot was washed again with TTBS to eliminate non-specific binding of antigen-antibody. Photographs were developed/printed on X-ray film (Kodak) using ECL kit (Pierce) containing peroxidase substrate to identify each protein.
It has been recently discovered that the tumor suppressor gene LKB1 is a member of AMPKK family (Hawley et al., 2003; Shaw et al., 2004; Woods et al., 2003a). Ser431-LKB1 phosphorylation promotes cell growth in the activated form of LKB1 (Sapkota et al., 2001). So, in this experiment, it was examined what effect the single treatment or co-treatment of LPA and ACI has on the expressions of p-Ser431-LKB1, LKB1 and β-actin (FIG. 8). […] Meanwhile, LKB1 expression therein was not changed.

[2] = test system: senescent cells (human fibroblasts); assay: Cell proliferation by counting live cells (trypan blue), senescent cells; assay type: cell-based; conditions: serum-starved 2 days, counted day 1, 2, 4, 30 μM LPA, 300 μM ACI, 10 mM AMPKI, 10 mM AICAR
Procedure: as §1, §2, §3

[3] = test system: fibroblasts (young and senescent cells); assay: Soft agar assay (colony formation); assay type: cell-based, human; conditions: 30 μM LPA, 300 μM ACI, three weeks
Procedure: Young and senescent cells were distributed in DMEM containing 10% bovine serum and 0.3% top agar, which were loaded on 0.6% basic agar layer in 60 mm culture dish. The cells treated with 30 μM LPA (L), 300 μM ACI (A), or both LPA and ACI for three weeks were fixed with 70% ethanol, and so was the control treated with nothing. After staining the cells with trypan blue, colonies were counted under microscope. HeLa and HepG2 cancer cell lines were distributed on soft agar dish, as positive controls, followed by treatment with LPA, ACI, or LPA+ACI. Colony formation was also analysed. The number of colonies formed in soft agar dish was plotted as mean+/− standard deviation and each measurement was repeated at least three times.
LPA and ACI were treated to fibroblast and cancer cell groups, followed by soft agar assay. […] From the above results, it was confirmed that LPA and ACI induce normal cell proliferation but not cause any transformation of cells to turn them into tumor.

p-Ser485/491-AMPKα = assay: Immuno-blotting of p-Ser485/491-AMPKα; assay type: cell-based, human; conditions: for p-Ser485/491-AMPKα expression after suppressing PKA: senescent cells pre-treated with 10 mM PKA inhibitor Rp-cAMP for one hour; for Ser485/491-AMPKα phosphorylation: 30 μM LPA, 300 μM ACI, up to day 4
Procedure: (A) and (B) are photographs illustrating the results of immuno-blotting. Precisely, sub-cultured young cells (PD 18: A) and senescent cells (PD 64: B) were treated with 30 μM of LPA […] and ACI singly or together, followed by further culture for 1, 2, and 4 days. Proteins were extracted from the cultured cells and the levels of AMPKα, p-Thr172-AMPKα, p-Ser485/491-AMPKα, p53, p-Ser15-p53, p21waf1/cip1 and β-actin were quantified by immuno-blotting.
(A) and (B) are photographs illustrating the results of immuno-blotting. Precisely, senescent cells (PD 64) were pre-treated with 10 mM of PKA inhibitor Rp-cAMP for one hour, followed by treatment with LPA(A) or ACI(B). After culturing the cells for 1, 2, and 4 days, proteins were extracted from the cultured cells and the levels of AMPKα, p-Thr172-AMPKα, p-Ser485/491-AMPKα, p53, p-Ser15-p53, p21waf1/cip1 and β-actin were quantified by immuno-blotting using 45 μg of the protein.
as §5

LKB1 = assay: Immuno-blotting of LKB1; assay type: cell-based, human; conditions: 1, 2, 4 days
Procedure: as §4
as §5, with “The blot was washed with TTBS, followed by reaction with horseradish peroxidase conjugated anti-IgGs diluted in TTBS containing 5% skim milk (1:5000) at room temperature for one hour. The blot was washed again with TTBS to eliminate non-specific binding of antigen-antibody. Photographs were developed/printed on X-ray film (Kodak) using ECL kit (Pierce) containing peroxidase substrate to identify each protein.” left out

Compound	cell proliferation (cell number) compared with control [1]	Ser431-LKB1 phosphorylation (p-Ser431-LKB1; senescent cells)	Ser431-LKB1 phosphorylation (p-Ser431-LKB1; young cells)	cell proliferation (cell number) compared with control [2]	colony formation in soft agar (transformation) [3]	p-Ser485/491-AMPKα expression after suppressing PKA (p-Ser485/491-AMPKα)	Ser485/491-AMPKα phosphorylation (p-Ser485/491-AMPKα; senescent cells)	Ser485/491-AMPKα phosphorylation (p-Ser485/491-AMPKα; young cells)	LKB1 expression (LKB1; senescent cells, 300 μM ACI)	LKB1 expression (LKB1; young cells, 30 μM LPA)
Nc1ncnc2c1ncn2C1CCCO1 (stereo not drawn) [ACI, 9-(tetrahydro-2′-furyl)adenine]	reduced	reduced	increased	increased	did not form any colony	not changed	did not affect	reduced	reduced	
lysophosphatidic acid [LPA]	increased	gradually increased	gradually reduced	increase	did not form any colony	not changed at all	gradually increased	reduced		not changed

From patent US20110124607A1, “COMPOSITION FOR REGULATION CELLULAR SENESCENCE COMPRISING LYSOPHOSPHATIDIC ACID AND INHIBITOR OF ADENYLYL CYCLASE AS ACTIVE INGREDIENTS” (priority 2008, published 2011)
